# Measured values published in paper PMC2247270, “Inhibition of vincristine binding to plasma membrane vesicles from daunorubicin-resistant Ehrlich ascites cells by multidrug resistance modulators” (British Journal of Cancer, 1989).
# pIC50: −log10 of the molar value.
# Biological target: T1, P-glycoprotein
# T1 construct: plasma membrane vesicles from EHR2/DNR+ Ehrlich ascites tumour cells
# Experiment: inhibition of 3H-vincristine binding to plasma membrane vesicles, rapid filtration
# Format: biochemical
smiles,measurement,value
"CN1CCN(CCCN2c3ccccc3Sc3ccc(C(F)(F)F)cc32)CC1 [TFP, trifluoperazine]",pIC50,4.63
